Data on 75 sequences can be found in the OligoGym collection.

This data set has as its target SNHG14. The settings on record: ASO.
Where [1] appears, read: Mouse Primary Neuronal Cell, 0.005 µM.

After the bases stand the sugars from the 5' end (letter, count) and the backbone: PS all phosphorothioate, else s phosphorothioate and o phosphodiester by linkage. Methylation of C is not given here. l = locked nucleic acid (LNA); d = 2'-deoxy (DNA)

As for “TTTATACCTTTCTTTAACCC (sugars lddldddddddddlddddll, PS)”, the target mRNA inhibition (Human Neuronal Cell, 7.5 µM) was 53%.
Same read-out and setting: then “ATTGATTCAATTCCCTT (sugars llddldddddddldlll, PS)”, with 50%; and TACTCTGCAATACACC (sugars l3 d11 l2, PS), with 55%.
Turning to TTAAGCTTTCACCTAT (sugars l2 d10 l4, PS), the target mRNA inhibition runs as follows: (Human Neuronal Cell, 0.2 µM) 37%; (Human Neuronal Cell, 1 µM) 54%.
Regarding “ATTTTTTTCTTACTATCTTC (sugars ldddddlddddddldddlll, PS)”, the target mRNA inhibition (Human Neuronal Cell, 7.5 µM) is 43%.
With “TATACACCATCATTATA (sugars l4 d11 l2, PS)”, the target mRNA inhibition stood at 41% (Human Neuronal Cell, 0.2 µM) and 60% (Human Neuronal Cell, 1 µM).
Turning to “CAGCAGGCAGATAACCTC (sugars l3 d12 l3, PS)”, the target mRNA inhibition is, setting by setting: (Human Neuronal Cell, 0.2 µM) -4%; (Human Neuronal Cell, 1 µM) 18%; (Human Neuronal Cell, 5 µM) 21%.
Regarding “AGATCATTCTCAACAATT (sugars l1 d3 l2 d6 l6, PS)”, the target mRNA inhibition (Human Neuronal Cell, 7.5 µM) worked out at 54%.
Consider “CAACTCTCACTGTAACT (sugars l4 d11 l2, PS)”, for which the target mRNA inhibition is 47% (Human Neuronal Cell, 0.2 µM) and 49% (Human Neuronal Cell, 1 µM).
Take “TTACCTACATCTCATACTT (sugars l2 d15 l2, PS)”: the target mRNA inhibition is, setting by setting: (Human Neuronal Cell, 0.2 µM) -5%; (Human Neuronal Cell, 1 µM) -7%; (Human Neuronal Cell, 5 µM) 7%; under setting [1], 79%.
As for “TAAAATTATTTATACACCA (sugars l2 d3 l1 d7 l6, PS)”, where the note is “Human Neuronal Cell, 7.5 µM”, the target mRNA inhibition came to 47%.
For “CTTCCCTTTGATAACAT (sugars l3 d11 l3, PS)”, the target mRNA inhibition (Human Neuronal Cell, 0.2 µM) was 20% and the target mRNA inhibition (Human Neuronal Cell, 1 µM) was 43%.
TCTCAAAGATCATTCT (sugars l4 d10 l2, PS): the target mRNA inhibition was determined as 54% (Human Neuronal Cell, 0.2 µM) and 62% (Human Neuronal Cell, 1 µM).
On to “AATTATTTATACACCATCAT (sugars lddllldddddddldlddll, PS)”, for which, where the note is “Human Neuronal Cell, 7.5 µM”, the target mRNA inhibition is 71%.
Still for that read-out and setting: then “AATTATTTATACACCATCAT (sugars ldlldddddddddddldlll, PS)”, with 62%; and “TAAAATTATTTATACACCAT (sugars llldldldddddddlldlll, PS)”, with 21%.
CTCTCCTCAAGATCAA (sugars l3 d10 l3, PS): the target mRNA inhibition by setting is: (Human Neuronal Cell, 0.2 µM) 37%; (Human Neuronal Cell, 1 µM) 49%.
On to “AAAATCTCAACTACCATTTT (sugars ldlllldddddddddlddll, PS)”, for which the target mRNA inhibition (Human Neuronal Cell, 7.5 µM) came to 50%.
The same measure, in the same setting: then “AAAATTATTTATACACCATC (sugars llldldldddddddllldll, PS)”, with 56%; and “TACTCTGCAATACACC (sugars l2 d2 l1 d9 l2, PS)”, with 61%.
For ATCTGATCTCACACAT (sugars l3 d10 l3, PS), the target mRNA inhibition runs as follows: (Human Neuronal Cell, 0.2 µM) 22%; (Human Neuronal Cell, 1 µM) 40%.
For “ATATCCCTTGATTATCC (sugars l3 d11 l3, PS)”, in that order: 16% and 18%.
In the case of “GTTTCCATCTACTATTAAT (sugars ldldllddddddddddlll, PS)”, the target mRNA inhibition (Human Neuronal Cell, 7.5 µM) came to 59%.
“CATCTGATCTCACACAT (sugars l4 d11 l2, PS)”: the target mRNA inhibition runs as follows: (Human Neuronal Cell, 0.2 µM) 29%; (Human Neuronal Cell, 1 µM) 46%.
With “TGTTTCCATCTACTATTA (sugars lddddlddddddddldll, PS)”, the target mRNA inhibition (Human Neuronal Cell, 7.5 µM) was found to be 62%.
On the same count and under the same terms, the same measure for “TTTATCAATATCTTCTCA (sugars l4 d10 l1 d1 l2, PS)”: 69%; for “AGATCATTCTCAACAATT (sugars ldllllddddddldddll, PS)”: 48%.
Take “TACACAATCAACAACAAAT (sugars l4 d13 l2, PS)”: the target mRNA inhibition turned out to be 25% (Human Neuronal Cell, 0.2 µM) and 41% (Human Neuronal Cell, 1 µM).
In the same order, the values of “TTGCTTCCAATTTATTT (sugars l4 d11 l2, PS)” are 25% and 44%.
In the same order, the values of “ACATTATTATTTAACCT (sugars l3 d11 l3, PS)” are 6% and 17%.
With “ATTTCATTAAGTCACCC (sugars l3 d11 l3, PS)”, the target mRNA inhibition (Human Neuronal Cell, 0.2 µM) stood at 51% and the target mRNA inhibition (Human Neuronal Cell, 1 µM) was determined as 53%.
Regarding “TTTTATACCTTTCTTTAACC (sugars l1 d1 l2 d14 l2, PS)”, the target mRNA inhibition (Human Neuronal Cell, 7.5 µM) was 57%.
The same measure, in the same setting: the same measure for “GCACATTCTTTCTATAC (sugars ldlldddddddlddlll, PS)”: 51%.
On the same count and under the same terms, the same measure for “TCTGTATACACCATCCC (sugars l2 d10 l1 d2 l2, PS)”: 61%.
With “CCTTTCATTAACATTTA (sugars l3 d11 l3, PS)”, the target mRNA inhibition was found to be 46% (Human Neuronal Cell, 0.2 µM) and 52% (Human Neuronal Cell, 1 µM).
For “TTATAGCCATTCTATCT (sugars lddllddddddddldll, PS)”, the target mRNA inhibition (Human Neuronal Cell, 7.5 µM) came to 62%.
On the same count and under the same terms, the same measure for “TTTTATACCTTTCTTTAACC (sugars ldlddddddddddlldddll, PS)”: 53%; for “AGATCATTCTCAACAATT (sugars l2 d1 l3 d10 l2, PS)”: 46%.
In the case of TCACTGTTCTGACTTT (sugars l3 d10 l3, PS), the target mRNA inhibition stood at 19% (Human Neuronal Cell, 0.2 µM); 18% (Human Neuronal Cell, 1 µM); 28% (Human Neuronal Cell, 5 µM).
For “GCACATTCTTTCTATAC (sugars ldlllddddddllddll, PS)”, the target mRNA inhibition (Human Neuronal Cell, 7.5 µM) was 34%.
Same read-out and setting: the same measure for “TCTGTATACACCATCCC (sugars l1 d11 l1 d2 l2, PS)”: 54%.
As for “ACATCTCATACTTGCTT (sugars l2 d12 l3, PS)”, under setting [1], the target mRNA inhibition amounted to 96.9%.
Consider “ATCTTTCCATTTATTTCCA (sugars lddlddddddddddlddll, PS)”, for which the target mRNA inhibition (Human Neuronal Cell, 7.5 µM) amounted to 44%.
For “CCTATGTTAATACTTTC (sugars l4 d11 l2, PS)”, the target mRNA inhibition is, setting by setting: (Human Neuronal Cell, 0.2 µM) 35%; (Human Neuronal Cell, 1 µM) 47%.
For the sequence “AGCAACATTATTAACCAC (sugars ldllldddddddllldll, PS)”, the target mRNA inhibition (Human Neuronal Cell, 7.5 µM) stood at 35%.
The same measure, in the same setting: the same measure for “AGTTCTACTATACTTTC (sugars l1 d2 l2 d8 l4, PS)”: 57%.
Turning to “ACCAGCTACAGGAACCTC (sugars l3 d12 l3, PS)”, the target mRNA inhibition was -35% (Human Neuronal Cell, 0.2 µM); -33% (Human Neuronal Cell, 1 µM); -60% (Human Neuronal Cell, 5 µM).
ACCTTAAGTAACATTT (sugars l4 d10 l2, PS): the target mRNA inhibition reads like this: (Human Neuronal Cell, 0.2 µM) 36%; (Human Neuronal Cell, 1 µM) 44%.
“ATCATTCTCAACAATTAAA (sugars l5 d8 l2 d2 l2, PS)”: the target mRNA inhibition (Human Neuronal Cell, 7.5 µM) came to 57%.
Turning to “TGTTTATACCCTTTCCAA (sugars lldldlddddddldddll, PS)”, the target mRNA inhibition (Human Neuronal Cell, 7.5 µM) was 54%.
Same read-out and setting: then “TTCTGTATACACCATCC (sugars l1 d12 l4, PS)”, with 51%.
Same read-out and setting: then “TTTATCAATATCTTCTCAC (sugars lddlllddddddddlddll, PS)”, with 63%.
Take “TACTATCTTTGACATTC (sugars l4 d11 l2, PS)”: the target mRNA inhibition was 48% (Human Neuronal Cell, 0.2 µM) and 59% (Human Neuronal Cell, 1 µM).
In the same order, the values of “TCACACCTATTATATAA (sugars l3 d11 l3, PS)” are 11% and 16%.
On to CAGCCATAAACTATAT (sugars l4 d10 l2, PS), for which the target mRNA inhibition was determined as 15% (Human Neuronal Cell, 0.2 µM) and 7% (Human Neuronal Cell, 1 µM).
Take CCATCTAATGATTATT (sugars l4 d10 l2, PS): the target mRNA inhibition is 26% (Human Neuronal Cell, 0.2 µM) and 21% (Human Neuronal Cell, 1 µM).
For “TTCTACTAAACATACAC (sugars l3 d11 l3, PS)”, in that order: 40% and 49%.
Consider “TTTTTTTCTTACTATCTTCA (sugars lddddddddddddldlddll, PS)”, for which the target mRNA inhibition (Human Neuronal Cell, 7.5 µM) came to 55%.
In the case of “CATTATATTTAAACTATCA (sugars l4 d13 l2, PS)”, the target mRNA inhibition is, setting by setting: (Human Neuronal Cell, 0.2 µM) 8%; (Human Neuronal Cell, 1 µM) 15%.
Consider “ATCATTCTCAACAATTAA (sugars l4 d8 l1 d1 l4, PS)”, for which, where the note is “Human Neuronal Cell, 7.5 µM”, the target mRNA inhibition stood at 53%.
The same measure, in the same setting: the same measure for “TTCTGTATACACCATCC (sugars ldddldddddddldlll, PS)”: 58%; for “ATTGATTCAATTCCCTT (sugars ldldldddddddlldll, PS)”: 65%.
On the same count and under the same terms, then “AGTTCTACTATACTTTCC (sugars ldlddddddddddlddll, PS)”, with 61%; and “TGTTTCCATCTACTATTA (sugars lddddldddddddlddll, PS)”, with 62%.
Take “CTCATCCCTCCAAGAAA (sugars l2 d13 l2, PS)”: the target mRNA inhibition runs as follows: (Human Neuronal Cell, 0.2 µM) 5%; (Human Neuronal Cell, 1 µM) -16%; (Human Neuronal Cell, 5 µM) -5%; under setting [1], 88.8%.
With “TACTCTGCAATACACC (sugars l1 d1 l1 d11 l2, PS)”, the target mRNA inhibition (Human Neuronal Cell, 7.5 µM) was 50%.
On the same count and under the same terms, then “TTTTTATACCTTTCTTTAAC (sugars ldllddddddddddlldlll, PS)”, with 57%.
Still for that read-out and setting: then “ATCTTTCCATTTATTTCCAT (sugars l1 d16 l3, PS)”, with 15%.
On the same count and under the same terms, the same measure for “TTATAGCCATTCTATCT (sugars ldlldddddddlddlll, PS)”: 21%.
Consider “CCATTTATTTCCATTTATTT (sugars lddlldldddddddddddll, PS)”, for which, under “Human Neuronal Cell, 7.5 µM”, the target mRNA inhibition was determined as 40%.
Still for that read-out and setting: then “TTTCCATTTATTTCCATTT (sugars l2 d2 l2 d11 l2, PS)”, with 59%.
Regarding ACAACTATTATCTTCT (sugars l3 d10 l3, PS), the target mRNA inhibition is, setting by setting: (Human Neuronal Cell, 0.2 µM) 40%; (Human Neuronal Cell, 1 µM) 57%.
For the sequence TATAGACCCAAACTAT (sugars l3 d10 l3, PS), the target mRNA inhibition amounted to 15% (Human Neuronal Cell, 0.2 µM) and 26% (Human Neuronal Cell, 1 µM).
In the case of “AATTATTTATACACCATCAT (sugars ldddldlddddddldddlll, PS)”, the target mRNA inhibition (Human Neuronal Cell, 7.5 µM) turned out to be 67%.
Still for that read-out and setting: the same measure for “TTTATCAATATCTTCTCA (sugars l3 d2 l1 d9 l3, PS)”: 65%.
